From US20240041898A9, “NEUROSTEROIDS AND ENANTIOMERS THEREOF FOR THE PREVENTION AND TREATMENT OF NEURODEGENERATIVE CONDITIONS” (priority 2019, published 2024)
Values joined by “and” are separate entries in the source; they are usually repeats but may differ in a detail not shown here. Equal entries are not always repeated.

Columns and labels:
[1] = test system: nerve fiber layer (NFL) of retina; assay: Ex vivo pressure-loaded retinas, electron microscopy of autophagosomes (AP) and degenerative autophagic vacuoles (DAV); assay type: cell-based, rat; conditions: 75 mmHg, 1 μM; for Autophagosomes (AP) in the NFL, Total / Degenerative autophagic vacuoles (DAV) in the NFL, Total: Total of 10 areas of 25 μm2; for Autophagosomes (AP)/25 μm2 in the NFL, individual areas 1-10 / Degenerative autophagic vacuoles (DAV)/25 μm2 in the NFL, individual areas 1-10: single values
Procedure: (§1) Rat ex vivo Eyecup Preparation—Rat ex vivo eyecups were prepared from 28-32 day old male Sprague-Dawley rats (Charles River Laboratories International Inc., Wilmington, MA). The anterior half of the enucleated eyes was carefully removed to make eyecup preparations. Eyecups were placed at the bottom of a 100 ml glass beaker filled with aCSF (artificial cerebrospinal fluid) containing (in mM): 124 NaCl, 5 KCl, 2 MgSO4, 2 CaCl2, 1.25 NaH2PO4, 22 NaHCO3, and 10 glucose, and incubated at 30° C. for 24 hours using a closed pressure-loading system (FIG. 1C). pH was maintained at 7.35 to 7.40. In the closed-pressure system, a glass beaker with the eyecup was placed at the bottom of an acrylic pressure chamber (2,000 ml volume). A 95% O2-5% CO2 gas mixture was delivered through disposable plastic tubing with an infusion valve and a control dial on the lid of the pressure chamber and an air filter (Cat #SLGP033RS, Merck Millipore, Billerica, MA). The plastic tubing delivering the gas terminated 1 cm above the bottom of the beaker.
(§2) Acutely prepared eyecups were incubated in gassed aCSF for at least 1 h at 30° C. before pressure loading. In some experiments, AlloP (1 μM), ent-AlloP (1 μM), and 3-MA (10 mM) were dissolved in aCSF at the time of experiment and administered by bath perfusion. Eyecup preparations were treated with these drugs for 1 h at 30° C. before pressure loading. For pressure loading, the 95% O2-5% CO2 gas mixture was infused until the pressure reading given by a manometer reached the appropriate level. The pressure was then locked by adjusting the control dial of the effusion valve, and monitored continuously for 24 h at 30° C.
Electron Microscopy—Retinal specimens were trimmed to a smaller size, and ultrathin sections (75 nm) were cut with a diamond knife and suspended over formvar-coated slot grids (1×2 mm opening). The sections were stained with uranyl acetate and lead citrate and viewed in a transmission electron microscope (H-7650, Hitachi High-Technologies Corp., Tokyo, Japan). Numbers of AP and DAV inside NFLs and axons were determined as the sum in 10 different areas of 25 μm^2 each from each sample. The analysis was performed in three eyes per experimental condition.

[2] = test system: pressure-loaded ex vivo rat retinas; assay type: cell-based; conditions: 75 mmHg; for NDS (neuronal damage score) / NDS, Average: 0-4 scale; for NDS (neuronal damage score) / NFLT vs. RT (%) / Damaged cells in GCL: 24 h, mean±SD; for NDS (neuronal damage score) / NDS, Average / Damaged cells in GCL / NFLT, Average / Damaged cell, Average: neurosteroid 1 μM; for NDS, Average / NFLT, Average / Damaged cell, Average: Average of 9; for axonal swelling in the nerve fiber layer (NFL), light micrographs: 1 μM; for NFLT vs. RT (%): neurosteroid 1 μM (Picro 1 μM, 3-MA 10 mM where named); for Damaged cell, Average: GCL
Procedure: as §1, §2
Data analysis of morphometry—The middle portion of the retina was examined, greater than 1,200 μm away from the center of the optic disc along the inner limiting membrane (ILM). The nerve fiber layer thickness (NFLT) was measured by light microscopy along 5 lines perpendicular to the pigment epithelium at a distance of 15 μm from each other around 1,200 μm away from the center of the optic disc. The average NFLT was determined in 9 different light micrographs taken from 5 eyecup samples in each condition, divided by total retinal thickness, and mean±standard deviation (%) was analyzed and compared with control.
The density of degenerated cells characterized by nuclear chromatin clumping or necrosis in the GCL was determined by counting 9 fields of 500 μm length in light micrographs taken from the block of the middle retinal part 950 to 1450 μm away from the center of the optic disc.
The severity of neuronal damage was assessed by light microscopy using a neuronal damage score (NDS). The NDS was determined in 9 different light micrographs taken from 5 eyecup samples in each condition. The NDS rates neuronal damage in the inner nuclear layer (INL) and the inner plexiform layer (IPL) on a 0-4 scale with 0 signifying no neuronal damage and 4 indicating very severe damage. Criteria used in establishing the degree of neuronal damage included the extent of cytoplasmic swelling in the IPL and the number of neurons in the INL showing signs of severe cytoplasmic swelling and coarse clumping of nuclear chromatin. The highest NDS rating (4) is given when the IPL discloses apparent spongiform appearance due to dendritic swelling and when most cell bodies in the INL show severe cytoplasmic swelling and coarse clumping of nuclear chromatin. If the damage is of a lesser degree, a rating of 3 is given. NDS 2 is assigned when cell bodies in the INL are sporadically swollen. […] Fine dendritic swelling in a limited area of the IPL without damage in the INL is described by NDS 1.
NFLT, density of degenerated cells in the GCL, and NDS were determined as the measurement of 10 different areas from three eyes per experimental condition. These morphometrical parameters were assessed by three raters, who remained unaware of the experimental condition. […]

p62 = assay: Ex vivo pressure-loaded retinas, Western blot of p62; assay type: cell-based, rat; conditions: ex vivo, 75 mmHg; for p62 expression (FIG. 2S), individual experiments 1-5: 1 μM, relative units, 10 mmHg = 1.00
Procedure: as §1, §2
Western Blot Analysis—At the end of each experiment, the posterior segments of the eye were placed on a flat cutting surface and immersed in ice-cold aCSF. With a surgical blade, the retina was carefully and gently detached from the sclera with a fine forceps. The isolated retinas were frozen at −80° C. Retinas were then homogenized in lysis buffer solution (CelLytic MT; Sigma-Aldrich, Inc.) with protease inhibitor cocktail (Sigma-Aldrich, Inc.), prepared according to the manufacturer's instructions. The tissue extracts were ultrasonicated and clarified by centrifugation at 12,000 g for 20 minutes at 4° C. The protein concentrations in supernatants were assayed (Quant-iT assay kit; Invitrogen Corp., Carlsbad, CA). Twenty micrograms of retinal extract were subjected to SDS polyacrylamide gel electrophoretic analysis. The proteins were then transferred to a PVDF. Immunoblots by polyclonal rabbit anti-LC3B antibody (MBL Life Science) or anti-SQSTMl/p62 mouse monoclonal antibody (Abcam) were visualized using WesternBreeze Chemiluminescent Immunodetection system (Invitrogen) with the exposure time to autoradiograph film (MXJB Plus; Kodak, Rochester, NY) adjusted to avoid over- or undersaturation. Precision Plus Protein™ Western Standards (Bio-Rad, Hercules, CA) followed by Precision Protein™ strep Tactin-AP conjugate (Bio-Rad) was used for a molecular marker of LC3. […]
The density of Western blot bands was quantified using Image-Pro Plus software. Quantification was adjusted to protein expression at 10 mmHg after normalization to the β-actin band at each pressure, and the relative gray-scale value was calculated by densitometric analysis of the obtained bands. […] Differences in expression levels were evaluated using Wilcoxon Rank-Sum Test, Tukey's or Dunnett's multiple comparison test. […]

LC3-II = assay: Ex vivo pressure-loaded retinas, Western blot of LC3-II; assay type: cell-based, rat; conditions: ex vivo; for LC3-II expression (FIG. 2Q), Average / LC3-II expression (FIG. 2Q), individual experiments 1-4: relative units, control = 1.00, normalized to β-actin
Procedure: as §1, §2
Western Blot Analysis—At the end of each experiment, the posterior segments of the eye were placed on a flat cutting surface and immersed in ice-cold aCSF. With a surgical blade, the retina was carefully and gently detached from the sclera with a fine forceps. The isolated retinas were frozen at −80° C. Retinas were then homogenized in lysis buffer solution (CelLytic MT; Sigma-Aldrich, Inc.) with protease inhibitor cocktail (Sigma-Aldrich, Inc.), prepared according to the manufacturer's instructions. The tissue extracts were ultrasonicated and clarified by centrifugation at 12,000 g for 20 minutes at 4° C. The protein concentrations in supernatants were assayed (Quant-iT assay kit; Invitrogen Corp., Carlsbad, CA). Twenty micrograms of retinal extract were subjected to SDS polyacrylamide gel electrophoretic analysis. The proteins were then transferred to a PVDF. Immunoblots by polyclonal rabbit anti-LC3B antibody (MBL Life Science) or anti-SQSTMl/p62 mouse monoclonal antibody (Abcam) were visualized using WesternBreeze Chemiluminescent Immunodetection system (Invitrogen) with the exposure time to autoradiograph film (MXJB Plus; Kodak, Rochester, NY) adjusted to avoid over- or undersaturation. Precision Plus Protein™ Western Standards (Bio-Rad, Hercules, CA) followed by Precision Protein™ strep Tactin-AP conjugate (Bio-Rad) was used for a molecular marker of LC3. MagicMark™ XP Western Protein Standard (Invitrogen, Carlsbad, CA) was used for a molecular marker of p62. Immunoblot data are normalized to β-actin levels in the same sample.
The density of Western blot bands was quantified using Image-Pro Plus software. Quantification was adjusted to protein expression at 10 mmHg after normalization to the β-actin band at each pressure, and the relative gray-scale value was calculated by densitometric analysis of the obtained bands. At least four independent experiments were performed for each condition, and the results are presented as relative units numerically. Differences in expression levels were evaluated using Wilcoxon Rank-Sum Test, Tukey's or Dunnett's multiple comparison test. Sample numbers were four to five per each experimental condition.

SMILES | RGC axon swelling, electron microscopy [1] | Autophagosomes (AP) in the NFL, Total [1] | Degenerative autophagic vacuoles (DAV) in the NFL, Total [1] | Autophagosomes (AP)/25 μm2 in the NFL, individual areas 1-10 [1] | Degenerative autophagic vacuoles (DAV)/25 μm2 in the NFL, individual areas 1-10 [1] | NDS (neuronal damage score) [2] | NDS, Average [2] | axonal swelling in the nerve fiber layer (NFL), light micrographs [2] | NFLT vs. RT (%) [2] [%] | Damaged cells in GCL [2] | NFLT, Average [2] [%] | Damaged cell, Average [2] | p62 expression after 3-MA treatment (FIG. 3H), Average (p62; 1 μM ent-AlloP, 10 mM 3-MA, relative, ent-AlloP = 1.00, Average of 4) | p62 expression after 3-MA treatment (FIG. 3H), individual experiments 1-4 (p62; 1 μM ent-AlloP, 10 mM 3-MA, relative, ent-AlloP = 1.00, single values) | p62 expression (FIG. 2S), individual experiments 1-5 (p62; single values) | LC3 expression after 3-MA treatment (FIG. 3F), Average (LC3-II; 75 mmHg, 1 μM ent-AlloP, 10 mM 3-MA, relative, ent-AlloP + 3-MA = 1.00, Average of 4) | LC3 expression after 3-MA treatment (FIG. 3F), individual experiments 1-4 (LC3-II; 75 mmHg, 1 μM ent-AlloP, 10 mM 3-MA, relative, ent-AlloP + 3-MA = 1.00, single values) | LC3-II expression (FIG. 2Q), Average (LC3-II; Average of 4) | LC3-II expression (FIG. 2Q), individual experiments 1-4 (LC3-II; single values)
CC(=O)[C@@H]1CC[C@@H]2[C@H]3CC[C@@H]4C[C@@H](O)CC[C@@]4(C)[C@@H]3CC[C@]21C [ent-AlloP, ent-allopregnanolone] | protected RGC axons from high pressure | 1 | 22 | 0 /25 μm2 (9×) and 1 /25 μm2 | 1 /25 μm2 (3×) and 2 /25 μm2 (4×) and 4 /25 μm2 (2×) and 3 /25 μm2 | 0.2 ± 0.4 | 0.2 | substantially inhibited | 1.6 ± 0.6 | 1.9 ± 1.2 per 250 μm of retina | 1.6 | 1.9 | 1.00 | 1.00 | 0.92 and 0.40 and 1.00 and 0.28 and 1.08 | 9.00 | 11.20 and 8.89 and 7.78 and 8.11 | 5.25 | 6.14 and 5.17 and 4.48 and 5.22
CC(=O)[C@H]1CC[C@H]2[C@@H]3CC[C@H]4C[C@H](O)CC[C@]4(C)[C@H]3CC[C@]12C [AlloP, allopregnanolone] | protected RGC axons from high pressure | 16 | 8 | 0 /25 μm2 (2×) and 2 /25 μm2 (6×) and 3 /25 μm2 and 1 /25 μm2 | 0 /25 μm2 (4×) and 1 /25 μm2 (5×) and 3 /25 μm2 | 0.2 ± 0.4 | 0.2 | attenuated | 1.5 ± 0.6 | 2.0 ± 1.7 per 250 μm of retina | 1.5 | 2.0 | – | – | 1.96 and 2.18 and 2.05 and 0.84 and 2.81 | – | – | 3.62 | 4.31 and 3.47 and 3.34 (2×)
